Assay: RP, Thermo Scientific Acclaim RSLC 120 C18, 100 × 2.1 mm, 2.2 µm, 30 °C, 0.2 mL/min, estimated dead time 1.1 min; A: 90% water + 10% methanol + 0.01% formic acid + 5 mM ammonium formate, pH 3.61; B: methanol + 0.01% formic acid + 5 mM ammonium formate, pH 3.61; gradient (min/%B) 0/1 1/1 2/39 13/99.9 15/99.9 15.1/1 20.1/1
Details: stereoisomer not certain

Row | SMILES | LC retention time
1 | Cc1ccc(Cl)c(OCC(O)CNC(C)(C)C)c1 (stereo not given) [Bupranolol] | 7.07 min
2 | COC12CCC3(CC1C(C)(O)C(C)(C)C)C1Cc4ccc(O)c5c4C3(CCN1CC1CC1)C2O5 (stereo not given) [Buprenorphine (BN)] | 7.96 min
3 | CC(C)N1C(=O)N(c2ccccc2)CSC1=NC(C)(C)C [Buprofezin  (Z-isomer. Buprofexin)] | 12.2 min
4 | CC(NC(C)(C)C)C(=O)c1cccc(Cl)c1 (stereo not given) [Bupropion] | 5.76 min
5 | O=C1CC2(CCCC2)CC(=O)N1CCCCN1CCN(c2ncccn2)CC1 [Buspirone] | 5.78 min
6 | CCCCOCN(C(=O)CCl)c1c(CC)cccc1CC [Butachlor] | 12.3 min
7 | C=CCOC(=O)C(C)(C)OC(=O)c1cc(-n2c(=O)cc(C(F)(F)F)n(C)c2=O)ccc1Cl [Butafenacil] | 9.89 min
8 | CCOP(=S)(NC(C)CC)Oc1cc(C)ccc1[N+](=O)[O-] (stereo not given) [Butamifos] | 11.2 min
9 | CC(C)CC1Nc2cc(Cl)c(S(N)(=O)=O)cc2S(=O)(=O)N1 (stereo not given) [Butizide] | 6.14 min
10 | CCCCOc1ccc(C(=O)OCCN(CC)CC)cc1 [Butoxycaine] | 11.3 min
11 | CNC(=O)ON=C(C)C(C)S(C)(=O)=O (stereo not given) [Butoxycarboxim] | 3.66 min
12 | CCC(C)Nc1c([N+](=O)[O-])cc(C(C)(C)C)cc1[N+](=O)[O-] (stereo not given) [Butralin] | 13 min
13 | CN(C)c1ccc(N=Nc2ccccc2)cc1 [Butter yellow] | 12.4 min
14 | C#CC(C)N(C)C(=O)Nc1ccc(Cl)cc1 (stereo not given) [Buturon] | 8.35 min
15 | CCSC(=O)N(CC(C)C)CC(C)C [Butylate] | 12 min
16 | CCC(NC)C(=O)c1ccc2c(c1)OCO2 (stereo not given) [Butylone] | 4.34 min
17 | CCCCOC(=O)c1ccc(O)cc1 [Butylparaben] | 9.46 min
18 | O=C(NC(CO)C(O)c1ccc([N+](=O)[O-])cc1)C(Cl)Cl (stereo not given) [CAF-3] | 12.7 min
19 | Cn1sc(Cl)cc1=O [CMI (5-Chloro-2-methyl-4-isothiazolin-3-on)] | 4.51 min
20 | CCCCCCCC(C)(C)c1ccc(C2CCCC(O)C2)c(O)c1 (stereo not given) [CP 47-497-C8] | 13.5 min
21 | CCCCCCC(C)(C)c1ccc(C2CCCC(O)C2)c(O)c1 (stereo not given) [CP 47-497] | 13.1 min
22 | CCCCCCC(C)(C)c1ccc(C2CC(O)CCC2CCCO)c(O)c1 (stereo not given) [CP 55-940] | 12 min
23 | CCOP(=O)(SC(C)CC)SC(C)CC (stereo not given) [Cadusafos] | 11.5 min

Row | SMILES | LC retention time
24 | CN(C)C(=O)OC1N=C(c2ccccc2)c2cc(Cl)ccc2N(C)C1=O (stereo not given) [Camazepam] | 10 min
25 | C=C(C)C1CCC(C)=CC1c1c(O)cc(CCCCC)cc1O (stereo not given) [Cannabidiol] | 12.7 min
26 | CCCCCc1cc(O)c2c(c1)OC(C)(C)c1ccc(C)cc1-2 [Cannabinol] | 13.7 min
27 | O=C1C2CC=CCC2C(=O)N1SC(Cl)(Cl)Cl (stereo not given) [Captan] | 8.77 min
28 | CNC(=O)Oc1cccc2ccccc12 [Carbaryl] | 7.46 min
29 | COC(=O)Nc1nc2ccccc2[nH]1 [Carbendazim] | 5.46 min
30 | CNC(=O)Oc1cccc2c1OC(C)(C)C2O (stereo not given) [Carbofuran-3-hydroxy] | 5.09 min
31 | CNC(=O)Oc1cccc2c1OC(C)(C)C2 [Carbofuran] | 7.01 min
32 | CCOP(=S)(OCC)SCSc1ccc(Cl)cc1 [Carbophenothion] | 12.9 min
33 | CCCCN(CCCC)SN(C)C(=O)Oc1cccc2c1OC(C)(C)C2 [Carbosulfan] | 13.8 min
34 | CC1=C(C(=O)Nc2ccccc2)S(=O)(=O)CCO1 [Carboxin-Oxy] | 5.59 min
35 | CC1=C(C(=O)Nc2ccccc2)SCCO1 [Carboxin] | 7.46 min
36 | CCOC(=O)C(Cl)Cc1cc(-n2nc(C)n(C(F)F)c2=O)c(F)cc1Cl (stereo not given) [Carfentrazone-ethyl] | 10.7 min
37 | CCCC(C)(COC(N)=O)COC(=O)NC(C)C (stereo not given) [Carisoprodol] | 7.99 min
38 | CC(N)C(O)c1ccccc1 (stereo not given) [Cathine / Ephedrine-Nor (Cathin. Phenylpropanolamine)] | 3.68 min
39 | CC(C(=O)c1ccccc1)N(C)C (stereo not given) [Cathinone-Dimethyl] | 3.64 min
40 | CCNC(C)C(=O)c1ccccc1 (stereo not given) [Cathinone-Ethyl] | 3.93 min
41 | CC(N)C(=O)c1ccccc1 (stereo not given) [Cathinone] | 3.59 min
42 | CNC(=O)c1cc(Cl)cc(C)c1NC(=O)c1cc(Br)nn1-c1ncccc1Cl [Chlorantraniliprole] | 8.7 min
43 | Cc1ccccc1CN1CCN(CCOC(c2ccccc2)c2ccccc2Cl)CC1 (stereo not given) [Chlorbenzoxamine] | 10.8 min
44 | CON(C)C(=O)Nc1ccc(Br)c(Cl)c1 [Chlorbromuron] | 9.55 min
45 | CN=C1CN(O)C(c2ccccc2)=c2cc(Cl)ccc2=N1 [Chlordiazepoxide] | 8.79 min
46 | Cc1cc(Cl)ccc1N=CN(C)C [Chlordimeform] | 4.64 min

Results, then the compound that gave them:

Row | LC retention time | SMILES
47 | 11.3 min | O=C(c1cccc(F)c1)N1CCC(N2CCN(c3ccccc3)CC2)CC1 [CC-2201]
48 | 4.94 min | CN(CCO)c1nc2c(c(=O)n(C)c(=O)n2C)n1C [Cafaminol]
49 | 7.66 min | CC(C)OC(=O)Nc1ccc2nc(-c3cscn3)[nH]c2c1 [Cambendazol]
50 | 12.2 min | CCOc1nc2cccc(C(=O)OC(C)OC(=O)OC3CCCCC3)c2n1Cc1ccc(-c2ccccc2-c2nn[nH]n2)cc1 (stereo not given) [Candesartan cilexetil]
51 | 7.93 min | CCOc1nc2cccc(C(=O)O)c2n1Cc1ccc(-c2ccccc2-c2nn[nH]n2)cc1 [Candesartan]
52 | 9.77 min | CC12CCC(=O)C=C1C=CC1C2CCC2(C)C1CCC21CCC(=O)O1 (stereo not given) [Canrenone]
53 | 7.59 min | CCCCCOC(=O)Nc1nc(=O)n(C2OC(C)C(O)C2O)cc1F (stereo not given) [Capecitabin]
54 | 10.4 min | CCCCCC(=O)c1ccc(O)cc1O [Caproylresorcinol]
55 | 9.83 min | COc1cc(CNC(=O)CCCCC=CC(C)C)ccc1O [Capsaicin]
56 | 4.59 min | CC(CS)C(=O)N1CCCC1C(=O)O (stereo not given) [Captopril]
57 | 5.49 min | CC(C)NCC(O)COc1cccc2[nH]c3ccccc3c12 (stereo not given) [Carazolol]
58 | 5.94 min | NC(=O)N1c2ccccc2CC(O)c2ccccc21 (stereo not given) [Carbamazepine -10-Hydroxy]
59 | 5.79 min | NC(=O)N1c2ccccc2C(O)C(O)c2ccccc21 (stereo not given) [Carbamazepine-10.11-dihydro-10.11 dihydroxy]
60 | 6.04 min | NC(=O)N1c2ccccc2C2OC2c2ccccc21 (stereo not given) [Carbamazepine-10.11-epoxide]
61 | 7.36 min | NC(=O)N1c2ccccc2C=Cc2ccccc21 [Carbamazepine]
62 | 3.16 min | CCN(CC)C(=O)N1CCN(C)CC1 [Carbamazine-Diethyl]
63 | 6.58 min | CCNC(=O)C(C)OC(=O)Nc1ccccc1 (stereo not given) [Carbetamide]
64 | 6.08 min | CN(C)CCOC(c1ccc(Cl)cc1)c1ccccn1 (stereo not given) [Carbinoxamine]
65 | 5.36 min | CCCCNC(=O)NS(=O)(=O)c1ccc(N)cc1 [Carbutamide]
66 | 2.89 min | CC(C)(C)NCC(O)c1ccc(O)c(NC(N)=O)c1 (stereo not given) [Carbuterol]

Row | LC retention time | SMILES
67 | 3.91 min | CC(C)(C)NCC(O)COc1cccc2c1CCC(=O)N2 (stereo not given) [Carteolol]
68 | 4.69 min | CCCNC(C)C(=O)Nc1c(C)csc1C(=O)OC (stereo not given) [Carticaine (Articaine)]
69 | 6.91 min | COc1ccccc1OCCNCC(O)COc1cccc2[nH]c3ccccc3c12 (stereo not given) [Carvedilol]
70 | 4.09 min | NC(C(=O)NC1C(=O)N2C(C(=O)O)=C(Cl)CSC12)c1ccccc1 (stereo not given) [Cefaclor]
71 | 2.84 min | CC1=C(C(=O)O)N2C(=O)C(NC(=O)C(N)c3ccc(O)cc3)C2SC1 (stereo not given) [Cefadroxil]
72 | 4.08 min | CC1=C(C(=O)O)N2C(=O)C(NC(=O)C(N)c3ccccc3)C2SC1 (stereo not given) [Cefalexin]
73 | 4.03 min | NC(=O)c1cc[n+](CC2=C(C(=O)[O-])N3C(=O)C(NC(=O)Cc4cccs4)C3SC2)cc1 (stereo not given) [Cefalonium]
74 | 4.16 min | Cc1nnc(SCC2=C(C(=O)O)N3C(=O)C(NC(=O)Cn4cnnn4)C3SC2)s1 (stereo not given) [Cefazolin]
75 | 3.76 min | CON=C(C(=O)NC1C(=O)N2C(C(=O)[O-])=C(C[n+]3cccc4c3CCCC4)CSC12)c1csc(N)n1 (stereo not given) [Cefquinome]
76 | 3.38 min | CC(C)(ON=C(C(=O)NC1C(=O)N2C(C(=O)[O-])=C(C[n+]3ccccc3)CSC12)c1csc(N)n1)C(=O)O (stereo not given) [Ceftazidime]
77 | 5.44 min | CON=C(C(=O)NC1C(=O)N2C(C(=O)O)=C(CSC(=O)c3ccco3)CSC12)c1csc(N)n1 (stereo not given) [Ceftiofur]
78 | 11.6 min | COCc1c(C(C)C)nc(C(C)C)c(C=CC(O)CC(O)CC(=O)O)c1-c1ccc(F)cc1 (stereo not given) [Cerivastatin]
79 | 8.86 min | COC(=O)COCCN1CCN(C(c2ccccc2)c2ccc(Cl)cc2)CC1 (stereo not given) [Cetirizine-Methyl ester]
80 | 9.13 min | O=C(O)COCC[N+]1([O-])CCN(C(c2ccccc2)c2ccc(Cl)cc2)CC1 (stereo not given) [Cetirizine-N-Oxide]
81 | 8.79 min | O=C(O)COCCN1CCN(C(c2ccccc2)c2ccc(Cl)cc2)CC1 (stereo not given) [Cetirizine]
82 | 7.46 min | Nc1ncnc(Nc2ccc(Cl)cc2)n1 [Chlorazanil]
83 | 9.27 min | C#CC(C)OC(=O)Nc1cccc(Cl)c1 (stereo not given) [Chlorbufam]
84 | 8.28 min | CN1CCN(C(c2ccccc2)c2ccc(Cl)cc2)CC1 (stereo not given) [Chlorcyclizine]
85 | 8.27 min | N=C1CN(O)C(c2ccccc2)=c2cc(Cl)ccc2=N1 [Chlordiazepoxide-Desmethyl]
